Article PMC5473904, “Epigenetic and antitumor effects of platinum(IV)-octanoato conjugates” (Scientific Reports, 2017)

Experiments:
[1] = system: A2780 human ovarian carcinoma cells; test: MTT cytotoxicity, 72 h; format: cell-based; details: Homo sapiens, A2780; MTT, 72 h, octanoic acid
[2] = system: A2780cisR human ovarian carcinoma cells; test: MTT cytotoxicity, 72 h; format: cell-based
Experimental: (§1) Cytotoxic activity of the compounds tested in the present work was screened on the panel of malignant and nonmalignant cell lines using the colorimetric MTT assay and 72 h of drug incubation period.
(§2) Cell death was evaluated using a system based on the tetrazolium compound MTT [3-(4,5-dimethyl-2-thiazolyl)-2,5-diphenyl-2H-tetrazolium bromide]. The cells were seeded in 96-well tissue culture plates at a density of 10^4 A2780cisR, LNCaP, HSF cells/well, 3 × 10^3 CHO-K1 or 4 × 10^3 MCF7, HCT-116 and MRC5 pd30 cells/well in 100 μL of medium. After overnight incubation (16 h), the cells were treated with the compounds in a final volume of 200 μL/well. After additional 72 h, 10 μL of a freshly diluted MTT solution (2.5 mg mL^−1) was added to each well, and the plate was incubated at 37 °C in a humidified 5% CO2 atmosphere for 4 h. At the end of the incubation period, the medium was removed, and the formazan product was dissolved in 100 μL of DMSO. The cell viability was evaluated by measurement of the absorbance at 570 nm, using an Absorbance Reader SUNRISE TECAN SCHOELLER. IC50 values were calculated from curves constructed by plotting cell survival (%) versus drug concentration (μM). All experiments were made in triplicate. The reading values were converted to the percentage of control (% cell survival). Cytotoxic effects were expressed as IC50.

[3] = system: CHO-K1 Chinese hamster ovary cells; test: MTT cytotoxicity, 72 h; format: cell-based; details: Cricetulus griseus, CHO-K1, octanoic acid
Experimental: as §1, §2

[4] = system: HCT-116 human colorectal carcinoma cells; test: MTT cytotoxicity, 72 h; format: cell-based; details: Homo sapiens, HCT-116; MTT, 72 h, octanoic acid
Experimental: as §1, §2

[5] = system: HSF human primary skin fibroblasts; test: MTT cytotoxicity, 72 h; format: cell-based; details: Homo sapiens, Skin fibroblast, octanoic acid
Experimental: as §1, §2

[6] = system: LNCaP human prostate adenocarcinoma cells; test: MTT cytotoxicity, 72 h; format: cell-based; details: Homo sapiens, LNCaP, octanoic acid
Experimental: as §1, §2

[7] = system: MCF-7 human breast cancer cells; test: MTT cytotoxicity, 72 h; format: cell-based; details: octanoic acid
Experimental: as §1, §2

[8] = system: MRC-5 (PD30) human fetal lung fibroblasts; test: MTT cytotoxicity, 72 h; format: cell-based; details: Homo sapiens, MRC5, octanoic acid
Experimental: as §1, §2

[9] = system: PNT1a; test: MTT cytotoxicity, 72 h; format: cell-based; details: Homo sapiens, PNT1A, octanoic acid
[10] = system: HDAC enzymes in HCT-116 cells; test: HDAC fluorimetric cellular activity assay; format: cell-based, human; details: 1 mM (1000-fold higher concentration)
Experimental: These epigenetic processes consist in downregulation of HDACs and yet other biochemical processes triggered by VPA released in cells by the reduction of the Pt(IV) prodrug. Moreover, it has also been shown[15] that non-branched MCFAs may act as HDAC inhibitors. […] HDAC activity was analyzed in HCT-116 cells and confirmed by an independent set of experiments on A2780 cells (data not shown) by using a commercial HDAC fluorimetric cellular activity kit as described in the section Materials and methods.
Figure 3 Activity of HDAC enzymes in HCT-116 cells treated with the compounds tested in the present work; their concentration was 1 µM except the concentration of free OA, which was 1 mM. […] The data represent a mean from three independent experiments, each performed in quadruplicate. The error bars are the SDs.
The activity of HDAC enzymes was analyzed in HCT-116 cells treated with compounds tested in the present work (1 µM). […] The activity of HDAC was analyzed using the HDAC fluorimetric cellular activity assay kit (Enzo Life Sciences; Farmingdale, NY) in the whole cells according to manufacturer’s instructions. […] The plates were scanned on a fluorescence reader Infinite 200 (TECAN) (360 nm excitation, 460 nm emission).

[11] = system: DNA methylation in HCT-116 cells; test: DNA methylation analysis (Imprint methylated DNA quantification kit); format: cell-based, human; details: HCT-116, free OA at sufficiently high (milimolar) concentration
Experimental: Human colon adenocarcinoma cells HCT-116 were chosen as the model cellular system suitable for DNA methylation analysis because: (i) this human colorectal cancer cell line has been used as a prototypic model for analyses of the genetic basis of cancer, and the role of epigenetic changes in tumorigenesis; (ii) they have a propensity to both global DNA hypomethylation and to silence genes through promoter focal hypermethylation, [21]. HCT-116 cells were treated with the compounds at the concentrations indicated in Fig. 4A for 24 or 72 h and DNA was isolated for the complete methylation analysis as described in the experimental section. Decitabine (5-aza-2′-deoxycytidine), a hypomethylating agent which hypomethylates DNA by inhibiting DNMT, was used in these experiments as a […]. The IC50 values found for this agent in HCT-116 cells (the drug-treatment period was 72 h) was (7.5 ± 0.3) µM (Table 1).
Figure 4 Analysis of DNA methylation. (A) DNA was isolated from HCT-116 cells after the exposure to the agents at the concentrations indicated in the graph for 24 or 72 h. The levels of DNA methylation in the control was taken as 100%. The bars represent mean values from three independent experiments each performed in octuplicate. The error bars are the SDs. (B) DNMT activity in colon carcinoma cells HCT-116 treated for 24 h with the compounds tested in the present work. The DNMT activity in the control, untreated cells was taken as 100%. Error bars are the SDs and the stars at the top of bars denote a significant difference from the control with (*p < 0.05; **p < […]), calculated using […] student’s t-test. The bars represent mean values from three independent experiments, each performed in quadruplicate.
Human colon carcinoma cells (HCT-116) were seeded at the density 1.5 × 10^6 cells/dish. […] The DNA content in each sample was determined by UV spectrophotometry. DNA (200 ng) from the samples was loaded to the Imprint methylated DNA quantification kit (Sigma-Aldrich, USA). The level of methylated DNA was proportional to the absorbance measured at 450 nm.

[12] = system: DNMT enzymes in HCT-116 cells; test: DNMT activity in nuclear extracts of treated cells; format: cell-based, human; design: unit of the concentration uncertain; details: HCT-116, 1 (unit uncertain), 24 h
Experimental: In these experiments, the total activity of DNMT enzymes was determined in nuclear extracts prepared from HCT-116 cells which were treated with the platinum compounds, free OA or decitabine for 24 h (Fig. 4B).
Human colon carcinoma cells (HCT-116) were seeded in 100 mm culture dishes at the density 1.5 × 10^6 cells/dish. Cells were harvested after 24 h of incubation with the compounds tested in the present work (1 µM). Nuclear extracts from the pellets were separated using EpiQuik Nuclear extraction kit I (Epigentek, NY) according to manufacturer’s instructions. Quantification of nuclear proteins was analyzed with the standard Bradford assay. The activity of DNMT enzymes was analyzed using the EpiQuik DNMT activity/inhibition assay Ultra kit (Epigentek, NY), according to the manufacturer´s protocol. Briefly, 10 µg of total nuclear protein was analyzed for its DNMT activity. The reaction time with a universal DNMT substrate stably coated onto microplate wells was 120 min at 37 °C. The final signal at the end of the ELISA reaction was detected at 450 nm (reference 620 nm). DNMT activity was normalized to controls and expressed in the percent or absolute values as OD h^−1 mg^−1, calculated as described in the manufacturer’s manual.

CCCCCCCC(=O)O [OA, octanoic acid, reference compound] was tested, and the IC50 [1] was 1.46 ± 0.1 mM, the IC50 ([2]; Homo sapiens, A2780cisR, MTT, 72 h, octanoic acid) was 0.76 ± 0.02 mM and the “RF, resistance factor” value ([2]; IC50 (resistant, A2780cisR)/IC50 (sensitive, A2780)) was 0.5. The IC50 [3] was 5.9 ± 0.7 mM, the IC50 [4] was 3.84 ± 0.39 mM and the IC50 [5] was 9.74 ± 0.03 mM. For the same compound, the IC50 [6] was 0.71 ± 0.12 mM, the IC50 ([7]; Homo sapiens, MCF7, 72 h) was 16 mM and the IC50 [7] was 16.2 ± 0.56 mM. For the same compound, the IC50 [8] was 7.67 ± 0.61 mM, the IC50 [9] was 2.07 ± 0.03 mM and the “Efficiency to inhibit HDAC activity” value [10] was “moderate inhibitory effect”. The “Change of DNA methylation” value [11] was “capable of inducing DNA hypermethylation” and the “Activity of DNMT enzymes” value [12] was “enhanced activity of DNMT enzymes”.
